Laboratory results: patent US10722484B2, “Methods of cancer treatment” (K-Gen, Inc., priority 2016, dated 2020)
Like-named read-outs stand apart in the source and are kept apart here.

Columns and labels:
[1] = tested on: A549; experiment: Proliferation assay (CellTiter Glo); type: cell-based; conditions: 96 hours
Procedure: (§1) The dose range for most compounds was 4.6 nM-30 μM. The dose ranges for some compounds were adjusted downward to 0.46 nM-3 μM or 0.08 nM-0.5 μM or 0.03 nM-0.2 μM. […] The results are shown in Tables 3-6 for pancreatic cancer, lung cancer, colon/gastric cancer, and leukemia.

[2] = tested on: AGS; experiment: Proliferation assay (CellTiter Glo); type: cell-based; conditions: 96 hours
Procedure: as §1

[3] = tested on: Capan-1; experiment: Proliferation assay (CellTiter Glo); type: cell-based; conditions: 96 hours
Procedure: as §1

[4] = tested on: H358; experiment: Proliferation assay (CellTiter Glo); type: cell-based; conditions: HE58, 96 hours
Procedure: as §1

[5] = tested on: H441; experiment: Proliferation assay (CellTiter Glo); type: cell-based; conditions: 96 hours
Procedure: as §1

[6] = tested on: H727; experiment: Proliferation assay (CellTiter Glo); type: cell-based; conditions: 96 hours
Procedure: as §1

[7] = tested on: HCT116; experiment: Proliferation assay (CellTiter Glo); type: cell-based; conditions: 96 hours
Procedure: as §1

[8] = tested on: KP-4; experiment: Proliferation assay (CellTiter Glo); type: cell-based; conditions: 96 hours
Procedure: as §1

[9] = tested on: LS180; experiment: Proliferation assay (CellTiter Glo); type: cell-based; conditions: 96 hours
Procedure: as §1

[10] = tested on: SW620; experiment: Proliferation assay (CellTiter Glo); type: cell-based; conditions: 96 hours
Procedure: as §1

[11] = tested on: MiaPaCa-2; experiment: Proliferation assay (CellTiter Glo); type: cell-based; conditions: 96 hours
[12] = tested on: HL60; experiment: Proliferation assay (CellTiter Glo); type: cell-based, human; conditions: 96 hours
Procedure: as §1

[13] = tested on: THP1; experiment: Proliferation assay (CellTiter Glo); type: cell-based, human; conditions: 96 hours
Procedure: as §1

[14] = tested on: BxPC-3; experiment: Proliferation assay (CellTiter Glo); type: cell-based; conditions: BxPC-3 (RAS WT); 96 hours
Procedure: as §1
(§2) Other cancer cell lines having wild-type K-RAS status and K-RAS mutation at G12 were also screened using the PKC activator compounds. […] K104 was tested in a range of 0.03 nM-0.2 μM. […] The dose ranges were adjusted downward to 0.46 nM-3 μM for K102 and 0.08 nM-0.5 μM for K103 for some cell lines. The results of the screening of cancer cells lines with wild-type K-RAS status and K-RAS mutations at the G12 positions are presented in Table 7.

[15] = tested on: Colo205; experiment: Proliferation assay (CellTiter Glo); type: cell-based; conditions: Colo205 (RAS WT); 96 hours
Procedure: as §1, §2

[16] = tested on: H1915; experiment: Proliferation assay (CellTiter Glo); type: cell-based; conditions: H1915 (RAS WT); 96 hours
Procedure: as §1, §2

[17] = tested on: H838; experiment: Proliferation assay (CellTiter Glo); type: cell-based; conditions: H838 (RAS WT); 96 hours
Procedure: as §1, §2

[18] = tested on: HT29; experiment: Proliferation assay (CellTiter Glo); type: cell-based; conditions: HT29 (RAS WT); 96 hours
Procedure: as §1, §2

[19] = tested on: RPMI8226; experiment: Proliferation assay (CellTiter Glo); type: cell-based; conditions: RPM18226; 96 hours
Procedure: as §1, §2

[20] = tested on: SW900; experiment: Proliferation assay (CellTiter Glo); type: cell-based; conditions: SW900 (K-RAS: G12V); 96 hours
Procedure: as §1, §2

[21] = tested on: A549 lung cancer cell line; experiment: Combination viability/proliferation assays (384-well IC50 ratio, 96-well MacSynergy II); type: cell-based
Procedure: (§3) A 96-well MacSynergy II format for combination test was also used. […] The analysis was done with the SQRT(Data) scale and the four parameter Hill curve was fitted using XLfit5.1 (the MacSynergy II Excel Spreadsheet) for the inhibition data. Synergy (positive number) or Antagonism (negative number) volumes were calculated. […] Three-dimensional MacSynergy II graphs were generated where positive values indicated synergism and negative values indicated antagonism.

[22] = tested on: MiaPaCa-2; experiment: Combination viability/proliferation assays; type: cell-based; conditions: K101A (0.166 and 1 μM) or K102 (0.0017 and 0.005 μM)
Procedure: as §3

[23] = tested on: Panc2.13; experiment: Combination viability/proliferation assays; type: cell-based; conditions: Panc2.13; K101A at 1 μM or at 0.67 μM
Procedure: as §3

[24] = tested on: AsPC-1; experiment: Proliferation assay (CellTiter Glo); type: cell-based
Procedure: as §1

[25] = tested on: CCRF-CEM; experiment: Proliferation assay (CellTiter Glo); type: cell-based; conditions: CCRF-CEM
Procedure: as §1

[26] = tested on: Pan2.03; experiment: Proliferation assay (CellTiter Glo); type: cell-based
Procedure: as §1

[27] = tested on: Pan2.13; experiment: Proliferation assay (CellTiter Glo); type: cell-based
Procedure: as §1

[28] = tested on: pancreatic, lung, colon and leukemia cancer cell lines; experiment: Proliferation assay, summary over the panel of cancer cell lines; type: cell-based
Procedure: PKC activator compounds were tested in a panel of K-RAS mutant pancreatic, lung, and colon cancer cell lines, as well as a number of leukemia cell lines having either mutant K-RAS or N-RAS.
as §1

CC(=O)OC12CC(C)C3(O)C(C=C(CO)CC4(O)C(O)C(C)=CC43)C1C2(C)C (stereo not shown) [Compound K101C]
EC50 ([1]; A549 (K-RAS: G12S), absolute EC50, read-out: Ab EC50): 13 µM | Top Inhibition % ([1]; A549, % of top inhibition): 70.3% | EC50 ([1]; A549, relative EC50, read-out: Re EC50): 6.68 µM | EC50 ([2]; AGS (gastric, K-RAS: G12D), absolute EC50, read-out: Ab EC50): > 30 µM | Top Inhibition % ([2]; AGS, % of top inhibition): 25.3% | EC50 ([2]; AGS, relative EC50, read-out: Re EC50): 11 µM | EC50 ([3]; Capan-1 (K-RAS: G12V), absolute EC50, read-out: Ab EC50): > 30 µM | Top Inhibition % ([3]; Capan-1, % of top inhibition): 35.7% | EC50 ([3]; Capan-1, relative EC50, read-out: Re EC50): 5.4 µM | Top Inhibition % ([4]; % of top inhibition): 44.0% | EC50 ([4]; absolute EC50, read-out: Ab EC50): > 30 µM | EC50 ([4]; relative EC50, read-out: Re EC50): 4.98 µM | EC50 ([5]; H441 (K-RAS: G12V), absolute EC50, read-out: Ab EC50): > 30 µM | Top Inhibition % ([5]; H441, % of top inhibition): 37.0% | EC50 ([5]; H441, relative EC50, read-out: Re EC50): 7.44 µM | EC50 ([6]; H727 (K-RAS: G12V), absolute EC50, read-out: Ab EC50): > 30 µM | Top Inhibition % ([6]; H727, % of top inhibition): 42.8% | EC50 ([6]; H727, relative EC50, read-out: Re EC50): 3.61 µM | EC50 ([7]; HCT116 (K-RAS: G13D), absolute EC50, read-out: Ab EC50): > 30 µM | Top Inhibition % ([7]; HCT116, % of top inhibition): 12.2% | EC50 ([8]; KP-4 (K-RAS: G12C), absolute EC50, read-out: Ab EC50): 11 µM | Top Inhibition % ([8]; KP-4, % of top inhibition): 70.4% | EC50 ([8]; KP-4, relative EC50, read-out: Re EC50): 6.77 µM | EC50 ([9]; LS180 (K-RAS: G12D), absolute EC50, read-out: Ab EC50): > 30 µM | Top Inhibition % ([9]; LS180, % of top inhibition): 6.8% | EC50 ([10]; SW620 (K-RAS: G12V), absolute EC50, read-out: Ab EC50): > 30 µM | Top Inhibition % ([10]; SW620, % of top inhibition): 0.0% | EC50 ([11]; MiaPaCa-2 (K-RAS: G12C), absolute EC50, read-out: Ab EC50): > 30 µM | Top Inhibition % ([11]; MiaPaCa-2, % of top inhibition): 40.1% | EC50 ([11]; MiaPaCa-2, relative EC50, read-out: Re EC50): 4.37 µM | EC50 ([12]; HL60 (N-RAS: Q61L), absolute EC50, read-out: Ab EC50): 17 µM | Top Inhibition % ([12]; HL60, % of top inhibition): 63.9% | EC50 ([12]; HL60, relative EC50, read-out: Re EC50): 13 µM | EC50 ([13]; THP1 (N-RAS: G12D), absolute EC50, read-out: Ab EC50): 16 µM | Top Inhibition % ([13]; THP1, % of top inhibition): 51.4% | EC50 ([13]; THP1, relative EC50, read-out: Re EC50): 8.11 µM | Top Inhibition % [14]: 36.67% | Top Inhibition % [15]: 73.2% | Top Inhibition % [16]: 28.9% | Top Inhibition % [17]: 20.2% | Top Inhibition % [18]: 4.8% | Top Inhibition % [19]: 22.72% | Top Inhibition % [20]: 10.9%

O=c1nc(-c2ccc(C(F)(F)F)cc2)[nH]c2c1CSCC2 [XAV-939, 2-[4-(trifluoromethyl)phenyl]-1,5,7,8-tetrahydrothiopyrano[4,3-d]pyrimidin-4-one]
Ratio ([…] DMSO IC50/combination IC50) ([21]; A549, in combination with 0.013 μM K102): >2 | Ratio ([…] DMSO IC50/combination IC50) ([21]; A549, in combination with 0.04 μM K102): >2 | Ratio ([…] DMSO IC50/combination IC50) ([21]; A549, in combination with 0.33 uM K101A): 2.55 | Ratio ([…] DMSO IC50/combination IC50) ([21]; A549, in combination with 1 uM K101A): 4.23 | effect in combination with K101A or K102 in inhibiting the growth of A549 cells ([21]; K101A or K102): strong synergistic effect | Combination in A549: K101A (synergism/antagonism) ([21]; agent assayed in combination with K101A, A549, * 2-3 concentrations, # full concentration ranges): Synergism | Combination in A549: K102 (synergism/antagonism) ([21]; agent assayed in combination with K102, A549, * 2-3 concentrations, # full concentration ranges): Synergism | effect in combination with low doses of K101A or K102 [22]: additive effects | effect in combination with K101A [23]: strong synergy

CCC/C=C/C=C/C(=O)O[C@H]1/C(=C/C(=O)OC)C[C@H]2C[C@H]([C@@H](C)O)OC(=O)C[C@H](O)C[C@@H]3C[C@H](OC(C)=O)C(C)(C)[C@](O)(C[C@@H]4C/C(=C/C(=O)OC)C[C@H](/C=C/C(C)(C)[C@]1(O)O2)O4)O3 [Compound K104, Bryostatin 1]
Top Inhibition % ([24]; AsPC-1, % of top inhibition, 96 hours): 4.2% | EC50 ([24]; Homo sapiens, ASPC1, 96 h, read-out: Ab EC50): > 0.2 µM | Top Inhibition % ([25]; % of top inhibition, 96 hours): 6.0% | EC50 ([25]; Homo sapiens, 96 h, read-out: Ab EC50): > 0.2 µM | EC50 ([26]; 96 h, read-out: Ab EC50): > 0.2 µM | Top Inhibition % ([26]; Pan2.03, % of top inhibition, 96 hours): 0.0% | EC50 ([27]; 96 h, read-out: Ab EC50): > 0.2 µM | Top Inhibition % ([27]; Pan2.13, % of top inhibition, 96 hours): 32.2% | Top Inhibition % [14]: 3.99% | Top Inhibition % [15]: 49.4% | Top Inhibition % [16]: 25.1% | Top Inhibition % [17]: 20.0% | Top Inhibition % [18]: 4.3% | activity in the proliferation assay / cancer cell lines [28]: much lower activity | potency in proliferation inhibition relative to prostratin ([28]; comparison with prostratin): less potent
